Test results: US8895502B2, “β2-glycoprotein I peptide inhibitors” (Kansas State University Research Foundation, priority 2010, dated 2014)
Square brackets hold non-standard residues; d marks the D form.

B1: human β2-GPI: commercially-available human β2-GPI (SEQ ID NO. 15), whole molecule (protein, listed as Homo sapiens)
chain: MISPVLILFSSFLCHVAIAGRTCPKPDDLPFSTVVPLKTFYEPGEEITYSCKPGYVSRGGMRKFICPLTGLWPINTLKCTPRVCPFAGILENGAVRYTTFEYPNTISFSCNTGFYLNGADSAKCTEEGKWSPELPVCAPIICPPPSIPTFATLRVYKPSAGNNSLYRDTAVFECLPQHAMFGNDTITCTTHGNWTKLPECREVKCPFPSRPDNGFVNYPAKPTLYYKDKATFGCHDGYSLDGPEEIECTKLGNWSAMPSCKASCKVPVKKATVVYQGERVKIQEKFKNGMLHGDKVSFFCKNKEKKCSYTEDAQCIDGTIEVPKCFKEHSSLAFWKTDASDVKPC

Legend:
C57Bl/6 mice [1] = assay: Intestinal ischemia/reperfusion, mucosal injury score; type: in vivo, mouse; conditions: C57Bl/6 mice, peptide 40 μM i.v. 5 min prior to ischemia, 2 hours reperfusion
Protocol: (§1) C57Bl/6 and Rag-1^−/− mice were subjected to ischemia followed by reperfusion similar to previously described studies (Moses, T. et al., J. Leukoc. Biol. 86:971-980 (2009)). Briefly, ketamine (16 mg/kg) and xylazine (80 mg/kg) were used to anesthetize the mice. Buprenorphine (0.06 mg/kg) was then administered for pain. A midline laparotomy was performed to expose the abdominal cavity of the mice, which were then allowed to equilibrate for 30 min. Body temperature was maintained at 37° C. using a water-circulating heat pad. Placing a warm, saline moistened piece of gauze over the abdominal cavity prevented peritoneal desiccation. […] Ischemia was noted by the intestine changing from a pink color to a gray color. After 30 min of ischemia, the clamp was removed and the intestines were allowed to reperfuse for 5, 10, 15, or 120 min. […] Mice treated with the various β2-GPI peptides underwent the same procedure with i.v. administration of the peptides (40 μM) 5 min prior to artery occlusion. Peptides 296, 305, and 296Cys to Ser were dissolved in N. Saline (0.9% NaCl) and injected i.v. in 100-μL volumes. Peptides 100 and 181 were dissolved in DMSO prior to diluting 1/100 in N. Saline. Additional mice received peptides prior to Sham treatment.
Immediately after euthanasia, a 2-cm mid jejunum tissue section was immediately fixed in 10% buffered formalin, embedded in paraffin, and 8 μm sections were cut transversely and hematoxylin and eosin (H&E) stained. Mucosal injury was graded on a six-tiered scale, as described previously (Fleming, S. D. et al., J. Immunol. 169:2126-2133 (2002)). Briefly, the average damage score of the intestinal section (75-150 villi) was determined after grading each villus. […] Photomicrographs were obtained from H&E stained slides using a 20×, 0.5 Plan Fluor objective on a Nikon 80i microscope and images acquired at room temperature using a Nikon DS-5M camera with DS-L2 software.
Ischemia/reperfusion was performed on ketamine/xylazine anesthetized mice as described in Example 1 above. After 2 hours of reperfusion, the mice were euthanized and sera, liver, spleen, and 2 cm sections of the small intestine, approximately 10 cm distal to the gastroduodenal junction, were collected for histological and other analyses. Mice treated with the various β2-GPI peptides underwent the same procedure with i.v. administration of the peptides. Most studies assumed 2 mL total blood volume in a mouse and administered peptides to a final concentration of 40 μM at 5 min prior to ischemia. Dose response studies administered 1-40 μM peptide at 5 min prior to ischemia and time course studies administered 40 μM peptide at 5 min prior to ischemia, and at 15-, 30- or 60-min post-ischemia (i.e., during reperfusion).
After euthanasia, tissue sections were fixed and stained following the procedures outlined in Example 1. Mucosal injury (SMI) was also graded on a six-tiered scale, as described in Example 1.

PGE2 = assay: Intestinal IR, ex vivo PGE2 generation; type: in vivo, mouse; conditions: C57Bl/6 mice, peptide 40 μM prior to IR
Protocol: C57Bl/6 and Rag-1^−/− mice were subjected to ischemia followed by reperfusion similar to previously described studies (Moses, T. et al., J. Leukoc. Biol. 86:971-980 (2009)). Briefly, ketamine (16 mg/kg) and xylazine (80 mg/kg) were used to anesthetize the mice. Buprenorphine (0.06 mg/kg) was then administered for pain. A midline laparotomy was performed to expose the abdominal cavity of the mice, which were then allowed to equilibrate for 30 min. Body temperature was maintained at 37° C. using a water-circulating heat pad. Placing a warm, saline moistened piece of gauze over the abdominal cavity prevented peritoneal desiccation. […] Ischemia was noted by the intestine changing from a pink color to a gray color. After 30 min of ischemia, the clamp was removed and the intestines were allowed to reperfuse for 5, 10, 15, or 120 min. […] Peptides 296, 305, and 296Cys to Ser were dissolved in N. Saline (0.9% NaCl) and injected i.v. in 100-μL volumes. Peptides 100 and 181 were dissolved in DMSO prior to diluting 1/100 in N. Saline. Additional mice received peptides prior to Sham treatment.
(§2) Ex vivo generation of eicosanoids by mid-jejunal tissue was determined. Immediately after collection, a 2-cm intestinal section from each mouse was minced, washed, resuspended in 37° C. oxygenated Tyrode's buffer (Sigma-Aldrich; St. Louis, Mo.), incubated at 37° C. for 20 minutes, and the supernatant collected. PGE2 and LTB4 concentrations were determined using enzyme immunoassay kits (Cayman Chemical; Ann Arbor, Mich.). IL-6 and IL-12 concentrations were determined using a Milliplex MAP immunoassay kit (Millipore) and read on a Milliplex Analyzer (Millipore). All eicosanoid and cytokine concentrations were standardized to the total tissue protein content.
(§3) Total peroxidase, LTB4, PGE2, IL-6, IL-12p40, and IL-12p70 concentrations were determined using the procedures described in Example 1.

C3 = assay: Intestinal IR, C3 deposition immunohistochemistry; type: in vivo, mouse; conditions: C57Bl/6 mice, peptide infused prior to IR
Protocol: as §1
After euthanasia, an additional 2-cm intestinal section from each mouse was immediately snap frozen in O.C.T. freezing medium and 8 μm sections were placed on slides for immunohistochemistry. The C3 deposition and F4/80 expression on the tissue sections were detected by staining with a purified rat-anti-mouse C3 (Hycult Biotechnologies; Plymouth Meeting, Pa.) or F4/80 (eBioscience; San Diego, Calif.) antibody followed by a Texas-red conjugated donkey-anti-rat IgG secondary antibody (Jackson Immunoresearch). CD31 (PECAM-1) and CD106 (VCAM-1) were detected by FITC conjugated rat anti-mouse CD31 or CD106 (Biolegend; San Diego, Calif.) antibodies. Each experiment contained serial sections stained with the appropriate isotype control antibodies. All slides were mounted with ProLong Gold (Invitrogen). Images were obtained at room temperature using a Nikon Eclipse 80i microscope equipped with a CoolSnap CF camera (Photometrics) and analyzed using Metavue software (Molecular Devices). The fluorescence was semi-quantitated using Image J software (NIH) using the fluorescent area fraction after setting threshold for each experiment. The average of the isotype control was subtracted from each photo.

LTB4 = assay: Intestinal IR, ex vivo LTB4 generation; type: in vivo, mouse; conditions: C57Bl/6 mice, peptide 40 μM prior to IR
Protocol: as §1, §2, §3

[2] = system: thioglycollate-elicited macrophages, nitric oxide; assay: β2-GPI stimulated macrophage nitric oxide production; type: cell-based; conditions: mouse β2-GPI 10 μg/mL, peptide 40 μM, 18 hours
Protocol: C57Bl/6 mice were injected i.p. with 1 mL thioglycollate (4%) 4 days prior to peritoneal lavage. Peritoneal exudate macrophages or the B cell line, LK35.2, were seeded at 2×10^6 cells/mL in 24-well or 96-well plates. After macrophage adherence, both cell types were treated with mouse β2-GPI (10 μg/mL) with or without peptide (40 μM). Additional cells were unstimulated as a negative control or stimulated with 10 μg/mL LPS (E. coli 055B5) as a positive control. Supernatants were collected 18-20 hours after stimulation and analyzed for nitrite by Griess reagent (Hoffman & Fleming, Cell Biochem. Funct. 28:686-694 (2010)) or IL-6 by Milliplex MAP kit (Millipore) following the manufacturer's instructions using a Luminex 200 with xPONENT 3.1 and Analyst software (Millipore).

C57Bl/6 mice [3] = assay: Intestinal ischemia/reperfusion, mucosal injury score; type: in vivo, mouse; conditions: Example 3, human β2-GPI in N. saline at 0.5-μg, 1-μg and 5-μg

Molecule | IR-induced intestinal mucosal damage (injury score) (C57Bl/6 mice [1]) | IR-induced intestinal PGE2 production (PGE2) | C3 deposition / complement activation after IR (C3) | IR-induced intestinal LTB4 production (LTB4) | β2-GPI-induced nitric oxide production [2] | IR-induced intestinal injury (C57Bl/6 mice [3])
H-GNDTVMCTEQQN-NH2 [peptide 181, 17, reference compound] | IR-induced intestinal damage similar to untreated mice | – | – | – | – | –
H-SHAEVTYSS-OH (H-[dS][dH][dA][dE][dV][dT][dY][dS][dS]-OH; also: retro-inverso) [peptide Retro-inverso D-p9, 13] | attenuated | attenuated | few to no C3 deposits | attenuated | – | –
H-SKNKEKK-NH2 [peptide p7, 11] | attenuate actual epithelial injury more effectively | returned PGE2 concentrations to those found in Sham treated animals | – | – | – | –
H-SSYTVEAHS-NH2 [peptide p9, 12] | attenuated | attenuated | significantly less deposition | attenuated | significantly attenuated | –
H-SSYTVEAHS-OH (H-[dS][dS][dY][dT][dV][dE][dA][dH][dS]-OH; SMILES CC(C)[C@@H](NC(=O)[C@H](NC(=O)[C@@H](Cc1ccc(O)cc1)NC(=O)[C@@H](CO)NC(=O)[C@H](N)CO)[C@H](C)O)C(=O)N[C@H](CCC(=O)O)C(=O)N[C@H](C)C(=O)N[C@H](Cc1c[nH]cn1)C(=O)N[C@H](CO)C(=O)O) [peptide D-p9, p9 synthesized with D-amino acids] | attenuated | attenuated | – | did not | – | –
B1 | – | – | – | – | – | effective at attenuating
